According to patent US8735384B2, “Amino heteroaryl compounds as beta-secretase modulators and methods of use” (Amgen Inc., priority 2010, dated 2014):
Like-named read-outs stand apart in the source and are kept apart here.

Key:
BACE1 = BACE1 (Homo sapiens, UniProt P56817); test: In vitro enzymatic BACE FRET assay; type: biochemical; details: beta secretase enzyme 0.2 nM, FRET substrate 50 nM, pH 4.2; read-out: BACE1 FRET assay (IC50 class)
How it was run: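 Enzyme activity was measured as release of quenching from a 50 nM fluorophore/quencher peptide spanning the cleavage site, over 1 h. This followed 1 h pre-incubation of 0.2 nM enzyme with compound dilutions at pH 4.2 (acetate, 10% DMSO, genapol). Tris addition ended the reaction before fluorescence was measured.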

[1] = test system: Aβ40 in conditioned medium of cells stably expressing Amyloid Precursor Protein (APP); test: In vitro BACE cell-based assay (HEK cell assay), Aβ40 sandwich ELISA; details: inhibition of Aβ40, 24 h incubation, read-out: HEK cell assay (IC50 class)
How it was run: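 Aβ40 in conditioned medium measured after 24 h compound exposure (10-point series, 100 μM or 10 μM start, 0.1% DMSO) of cells stably expressing APP, seeded 40K/well. Detection: pAb40/6E10-biotin sandwich ELISA at 4°C with time-resolved europium read-out; IC50 derived from percent of control.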

Chain of BACE1 (P56817 46-501, species assumed): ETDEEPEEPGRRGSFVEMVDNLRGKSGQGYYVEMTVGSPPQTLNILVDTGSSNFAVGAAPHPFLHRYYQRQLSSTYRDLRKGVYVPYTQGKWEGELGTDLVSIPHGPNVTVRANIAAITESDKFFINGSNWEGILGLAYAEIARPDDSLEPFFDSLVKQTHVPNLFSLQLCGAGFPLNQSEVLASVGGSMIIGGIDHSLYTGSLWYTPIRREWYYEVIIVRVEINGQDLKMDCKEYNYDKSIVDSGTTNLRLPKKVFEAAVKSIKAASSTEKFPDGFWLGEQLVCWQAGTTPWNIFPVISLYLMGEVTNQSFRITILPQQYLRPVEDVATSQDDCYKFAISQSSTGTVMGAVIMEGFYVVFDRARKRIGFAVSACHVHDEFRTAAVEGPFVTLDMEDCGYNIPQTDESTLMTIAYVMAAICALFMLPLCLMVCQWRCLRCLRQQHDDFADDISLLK

For `Cc1cccc(C(=O)N2CCCC2)c1-c1ccc2nc(N)c(N3CCOC[C@@H]3C)cc2c1` [Example 210, (S)-(2-(2-amino-3-(3-methylmorpholino)quinolin-6-yl)-3-methylphenyl)(pyrrolidin-1-yl)methanone], the IC50 (BACE1) was 0.501 to 1 µM and the IC50 ([1]; Homo sapiens, HEK293, 24 h) was 1.01 to 5 µM.

`COc1ccccc1C(=N)c1cccc(C)c1-c1ccc2nc(N)c(N3C[C@@H]4C[C@H]3CO4)cc2c1` [Example 188, 3-((1S,4S)-2-oxa-5-azabicyclo[2.2.1]heptan-5-yl)-6-(2-(imino(2-methoxyphenyl)methyl)-6-methylphenyl)quinolin-2-amine] showed an IC50 (BACE1) of 0.1 to 0.5 µM and an IC50 ([1]; Homo sapiens, HEK293, 24 h) of 0.501 to 1 µM.

In the case of `CCCC1CCCN1C(=O)c1cccc(C)c1-c1ccc2nc(N)c(N3CCOCC3)cc2c1` (centres unmarked) [Example 63, (2-(2-amino-3-morpholinoquinolin-6-yl)-3-methylphenyl)(2-propylpyrrolidin-1-yl)methanone], the IC50 (BACE1) is reported as 0.1 to 0.5 µM and the IC50 ([1]; Homo sapiens, HEK293, 24 h) is reported as 1.01 to 5 µM.

With `Cc1cccc(C(=O)n2ccc3ccccc32)c1-c1ccc2nc(N)c(N3CCOCC3)cc2c1` [Example 26, (2-(2-amino-3-morpholinoquinolin-6-yl)-3-methylphenyl)(1H-indol-1-yl)methanone] the IC50 (BACE1) was 0.1 to 0.5 µM and the IC50 ([1]; Homo sapiens, HEK293, 24 h) was > 5 µM.

For `Cc1cccc(C(=O)N2CCCC2)c1-c1ccc2nc(N)c(N3C[C@@H]4C[C@H]3CO4)cc2c1` [Example 56, (2-(2-amino-3-((1S,4S)-2-oxa-5-azabicyclo[2.2.1]heptan-5-yl)quinolin-6-yl)-3-methylphenyl)(pyrrolidin-1-yl)methanone], the IC50 (BACE1) was < 0.1 µM and the IC50 ([1]; Homo sapiens, HEK293, 24 h) was < 0.1 µM.

For `Cc1cccc(C(=O)C2CCCCC2)c1-c1ccc2nc(N)c(N3CCOCC3)cc2c1` [Example 181, (2-(2-amino-3-morpholinoquinolin-6-yl)-3-methylphenyl)(cyclohexyl)methanone], the IC50 (BACE1) was < 0.1 µM and the IC50 ([1]; Homo sapiens, HEK293, 24 h) was 1.01 to 5 µM.

In the case of `CCC1CCCCN1C(=O)c1cccc(C)c1-c1ccc2nc(N)c(N3CCOCC3)cc2c1` (centres unmarked) [Example 81, (2-(2-amino-3-morpholinoquinolin-6-yl)-3-methylphenyl)(2-ethylpiperidin-1-yl)methanone], the IC50 (BACE1) is reported as < 0.1 µM and the IC50 ([1]; Homo sapiens, HEK293, 24 h) is reported as 1.01 to 5 µM.

With `Cc1cccc(C(=O)N2CCCC2)c1-c1ccc2nc(N)c(N3CCOCC3)cc2c1` [Example 1, (2-(2-amino-3-morpholinoquinolin-6-yl)-3-methylphenyl)(pyrrolidin-1-yl)methanone] the IC50 (BACE1) was < 0.1 µM and the IC50 ([1]; Homo sapiens, HEK293, 24 h) was 0.1 to 0.5 µM.

Work on `Nc1nc2ccc(-c3ccc(Cl)cc3C(=O)N3CCCC3)cc2cc1N1CCOCC1` [Example 147, (2-(2-amino-3-morpholinoquinolin-6-yl)-5-chlorophenyl)(pyrrolidin-1-yl)methanone] yielded an IC50 (BACE1) of 0.1 to 0.5 µM and an IC50 ([1]; Homo sapiens, HEK293, 24 h) of 1.01 to 5 µM.

With `Cc1cccc(C(=O)N2CCCC2)c1-c1ccc2nc(N)c(C3CCCO3)cc2c1` (centres unmarked) [Example 207, (2-(2-amino-3-(tetrahydrofuran-2-yl)quinolin-6-yl)-3-methylphenyl)(pyrrolidin-1-yl)methanone] the IC50 (BACE1) was 0.1 to 0.5 µM and the IC50 ([1]; Homo sapiens, HEK293, 24 h) was 1.01 to 5 µM.

With `Cc1cccc(C(=NO)c2ccccc2)c1-c1ccc2nc(N)c(N3CCOCC3)cc2c1` (stereo in doubt) [Example 16, (Z)-(2-(2-amino-3-morpholinoquinolin-6-yl)-3-methylphenyl)(phenyl)methanone oxime] the IC50 (BACE1) was < 0.1 µM and the IC50 [1] was 0.501 to 1 µM.

For `Cc1cccc(C(=O)N2CC=CC2)c1-c1ccc2nc(N)c(N3CCOCC3)cc2c1` [Example 90, (2-(2-amino-3-morpholinoquinolin-6-yl)-3-methylphenyl)(2,5-dihydro-1H-pyrrol-1-yl)methanone], the IC50 (BACE1) was < 0.1 µM and the IC50 ([1]; Homo sapiens, HEK293, 24 h) was 0.501 to 1 µM.

`Nc1nc2ccc(-c3ccccc3OCc3ccccc3)cc2cc1N1CCOCC1` [Example 53, 6-(2-(benzyloxy)phenyl)-3-morpholinoquinolin-2-amine] was tested, and the IC50 (BACE1) was 0.1 to 0.5 µM and the IC50 ([1]; Homo sapiens, HEK293, 24 h) was > 5 µM.

`Cc1cccc(C(=O)N(C)CCc2ccccc2)c1-c1ccc2nc(N)c(N3CCOCC3)cc2c1` [Example 137, 2-(2-amino-3-morpholinoquinolin-6-yl)-N,3-dimethyl-N-phenethylbenzamide] gave an IC50 (BACE1) of 0.1 to 0.5 µM and an IC50 ([1]; Homo sapiens, HEK293, 24 h) of 1.01 to 5 µM.

With `Cc1cccc(C(=O)c2cccc(C)c2-c2ccc3nc(N)c(N4CCOCC4)cc3c2)c1` [Example 173, (2-(2-amino-3-morpholinoquinolin-6-yl)-3-methylphenyl)(m-tolyl)methanone] the IC50 (BACE1) was < 0.1 µM and the IC50 ([1]; Homo sapiens, HEK293, 24 h) was 1.01 to 5 µM.

`Cc1cccc(-n2cc(Cl)c(C)n2)c1-c1ccc2nc(N)c(N3CCOCC3)cc2c1` [Example 34, 6-(2-(4-chloro-3-methyl-1H-pyrazol-1-yl)-6-methylphenyl)-3-morpholinoquinolin-2-amine] was tested, and the IC50 (BACE1) was < 0.1 µM and the IC50 ([1]; Homo sapiens, HEK293, 24 h) was 1.01 to 5 µM.

`Cc1cccc(C(=O)C2CCCO2)c1-c1ccc2nc(N)c(N3CCOCC3)cc2c1` (centres unmarked) [Example 5, (2-(2-amino-3-morpholinoquinolin-6-yl)-3-methylphenyl)(tetrahydrofuran-2-yl)methanone] showed an IC50 (BACE1) of 0.1 to 0.5 µM and an IC50 ([1]; Homo sapiens, HEK293, 24 h) of 0.501 to 1 µM.

Work on `CCCCN(CC)C(=O)c1cccc(C)c1-c1ccc2nc(N)c(N3CCOCC3)cc2c1` [Example 118, 2-(2-amino-3-morpholinoquinolin-6-yl)-N-butyl-N-ethyl-3-methylbenzamide] yielded an IC50 (BACE1) of 0.501 to 1 µM and an IC50 ([1]; Homo sapiens, HEK293, 24 h) of 1.01 to 5 µM.

In the case of `Cc1cccc(Cc2ccccc2F)c1-c1ccc2nc(N)c(N3CCOCC3)cc2c1` [Example 202, 6-(2-(2-fluorobenzyl)-6-methylphenyl)-3-morpholinoquinolin-2-amine], the IC50 (BACE1) is reported as < 0.1 µM and the IC50 ([1]; Homo sapiens, HEK293, 24 h) is reported as 1.01 to 5 µM.

With `Nc1nc2ccc(-c3c(C(=O)N4CCCC4)cccc3C(F)(F)F)cc2cc1N1CCOCC1` [Example 155, (2-(2-amino-3-morpholinoquinolin-6-yl)-3-(trifluoromethyl)phenyl)(pyrrolidin-1-yl)methanone] the IC50 (BACE1) was 0.1 to 0.5 µM and the IC50 ([1]; Homo sapiens, HEK293, 24 h) was 1.01 to 5 µM.

In the case of `Cc1cccc(C(N)c2ccccc2)c1-c1ccc2nc(N)c(N3CCOCC3)cc2c1` (centres unmarked) [Example 17, 6-(2-(amino(phenyl)methyl)-6-methylphenyl)-3-morpholinoquinolin-2-amine], the IC50 (BACE1) is reported as < 0.1 µM and the IC50 ([1]; Homo sapiens, HEK293, 24 h) is reported as < 0.1 µM.

`Cc1cccc(C(=O)c2nccs2)c1-c1ccc2nc(N)c(N3CCOCC3)cc2c1` [Example 158, (2-(2-amino-3-morpholinoquinolin-6-yl)-3-methylphenyl)(thiazol-2-yl)methanone] gave an IC50 (BACE1) of 0.1 to 0.5 µM and an IC50 ([1]; Homo sapiens, HEK293, 24 h) of 1.01 to 5 µM.

In the case of `Nc1nc2ccc(-c3ccccc3C(=O)C3CCCCC3)cc2cc1N1CCOCC1` [Example 152, (2-(2-amino-3-morpholinoquinolin-6-yl)phenyl)(cyclohexyl)methanone], the IC50 (BACE1) is reported as < 0.1 µM and the IC50 ([1]; Homo sapiens, HEK293, 24 h) is reported as 1.01 to 5 µM.

For `Cc1cccc(N2CCOCC2=O)c1-c1ccc2nc(N)c(N3CCOCC3)cc2c1` [Example 48, 4-(2-(2-amino-3-morpholinoquinolin-6-yl)-3-methylphenyl)morpholin-3-one], the IC50 (BACE1) was 0.501 to 1 µM and the IC50 ([1]; Homo sapiens, HEK293, 24 h) was 1.01 to 5 µM.

In the case of `Cc1cccc(C(=O)c2ccncn2)c1-c1ccc2nc(N)c(N3CCOCC3)cc2c1` [Example 23, (2-(2-amino-3-morpholinoquinolin-6-yl)-3-methylphenyl)(pyrimidin-4-yl)methanone], the IC50 (BACE1) is reported as 0.1 to 0.5 µM and the IC50 ([1]; Homo sapiens, HEK293, 24 h) is reported as > 5 µM.

With `CC(C)(C)COc1ccccc1-c1ccc2nc(N)c(N3CCOCC3)cc2c1` [Example 51, 3-morpholino-6-(2-(neopentyloxy)phenyl)quinolin-2-amine] the IC50 (BACE1) was 0.501 to 1 µM and the IC50 ([1]; Homo sapiens, HEK293, 24 h) was > 5 µM.

Work on `Cc1cccc(C(=O)N2CCCC2)c1-c1ccc2nc(N)c(C3=CCCC3)cc2c1` [Example 57, (2-(2-amino-3-cyclopentenylquinolin-6-yl)-3-methylphenyl)(pyrrolidin-1-yl)methanone] yielded an IC50 (BACE1) of 0.1 to 0.5 µM and an IC50 ([1]; Homo sapiens, HEK293, 24 h) of 1.01 to 5 µM.

In the case of `Cc1cccc(C(=O)c2cccc(Cl)c2)c1-c1ccc2nc(N)c(N3CCOCC3)cc2c1` [Example 174, (2-(2-amino-3-morpholinoquinolin-6-yl)-3-methylphenyl)(3-chlorophenyl)methanone], the IC50 (BACE1) is reported as < 0.1 µM and the IC50 ([1]; Homo sapiens, HEK293, 24 h) is reported as 1.01 to 5 µM.

`Cc1cccc(C(=O)N2CC(F)(F)C2)c1-c1ccc2nc(N)c(N3CCOCC3)cc2c1` [Example 99, (2-(2-amino-3-morpholinoquinolin-6-yl)-3-methylphenyl)(3,3-difluoroazetidin-1-yl)methanone] was tested, and the IC50 (BACE1) was 0.1 to 0.5 µM and the IC50 ([1]; Homo sapiens, HEK293, 24 h) was 0.501 to 1 µM.

`CCN(C(=O)c1cccc(C)c1-c1ccc2nc(N)c(N3CCOCC3)cc2c1)C1CCCCC1` [Example 113, 2-(2-amino-3-morpholinoquinolin-6-yl)-N-cyclohexyl-N-ethyl-3-methylbenzamide] showed an IC50 (BACE1) of 0.1 to 0.5 µM and an IC50 ([1]; Homo sapiens, HEK293, 24 h) of 1.01 to 5 µM.

`CO/N=C(/c1ccccc1)c1cccc(C)c1-c1ccc2nc(N)c(N3CCOCC3)cc2c1` [Example 191, (Z)-(2-(2-amino-3-morpholinoquinolin-6-yl)-3-methylphenyl)(phenyl)methanone O-methyl oxime] was tested, and the IC50 (BACE1) was < 0.1 µM and the IC50 ([1]; Homo sapiens, HEK293, 24 h) was 1.01 to 5 µM.

With `CC(C)(C)CCc1cccc(C(=O)N2CCC2)c1-c1ccc2nc(N)c(N3CCOCC3)cc2c1` [Example 164, (2-(2-amino-3-morpholinoquinolin-6-yl)-3-(3,3-dimethylbutyl)phenyl)(azetidin-1-yl)methanone] the IC50 (BACE1) was < 0.1 µM and the IC50 ([1]; Homo sapiens, HEK293, 24 h) was < 0.1 µM.

`COc1ccc(N(C)C(=O)c2cccc(C)c2-c2ccc3nc(N)c(N4CCOCC4)cc3c2)cc1` [Example 132, 2-(2-amino-3-morpholinoquinolin-6-yl)-N-(4-methoxyphenyl)-N,3-dimethylbenzamide] was tested, and the IC50 (BACE1) was < 0.1 µM and the IC50 ([1]; Homo sapiens, HEK293, 24 h) was 0.501 to 1 µM.

`Cc1cccc(Oc2ccccc2)c1-c1ccc2nc(N)c(N3CCOCC3)cc2c1` [Example 171, 6-(2-methyl-6-phenoxyphenyl)-3-morpholinoquinolin-2-amine] was tested, and the IC50 (BACE1) was < 0.1 µM and the IC50 ([1]; Homo sapiens, HEK293, 24 h) was > 5 µM.
